Experimental data as given in US6495358B1, “Sulfamide and bis-sulfamide amino acid derivatives as inhibitors of proteolytic enzymes” (Wichita State University, priority 2000, dated 2002).
One block for each compound: values may come before it.

Legend:
[1] = target: T1, human leukocyte elastase (HLE) (Homo sapiens, UniProt P08246); test: Human leukocyte elastase (HLE) inhibition assay, Dixon plot; assay type: biochemical; conditions: competitive inhibition conditions, substrate MeOSuc-AAPV-pNA, 0.1 M HEPES pH 7.25, 25° C., read-out: K1 or % Inhibition (Ki), Elastase (HLE)
T1 sequence (P08246 30-247 limits assumed): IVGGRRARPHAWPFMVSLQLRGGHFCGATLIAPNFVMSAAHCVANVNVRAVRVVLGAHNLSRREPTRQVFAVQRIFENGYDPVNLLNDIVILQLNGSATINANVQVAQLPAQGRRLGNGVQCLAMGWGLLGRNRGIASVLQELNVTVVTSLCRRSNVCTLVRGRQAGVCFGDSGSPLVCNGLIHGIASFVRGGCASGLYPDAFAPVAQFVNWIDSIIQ
From the text: Screening of compounds for protease activity is known in the art. The human leukocyte elastase (HLE), cathepsin G (Cat G) and proteinase 3 (PR3) assays have each been described in detail; see, Groutas et al. Biochemistry 36:4739 (1997). Chymase assay has also been previously reported; see, Schechter, et al., J. Biol. Chem. 268:23626 (1993).
The substrates and buffers used in the assay inhibition studies with human leukocyte elastase (HLE), cathepsin G (Cat G), proteinase 3 (PR3) (Groutas, W. C., et al., Biochemistry 36:4739 (1997) and chymase (Groutas, W. C. et al., Bioorg. Med. Chem. Lett. 9:2199 (1999) were as follows: HLE, MeOSuc-AAPV-pNA, 0.1 M HEPES buffer, pH, 7.25 in 1-5% DMSO; Cat G, Suc-AAPF-pNA, 0.1 M HEPES buffer, pH 7.5; PR3, Boc-L-Ala p-mitrophenyl ester, 0.1 M phosphate buffer, pH 6.5; chymase, Suc-AAPF-pNA, 0.45 Tris buffer, 1.8 M Na Cl, pH 8.03 and 2% DMSO. All assays were carried out at 25° C. and for all enzymes the absorbance was monitored at 410 nm, except PR 3 (348 nm).
The inhibitory activity of compound 15 toward HLE was determined under competitive inhibition conditions. (Dixon, M. Biochem. J. 20 55:70-71 (1953)). Human leukocyte elastase (HLE assay has been described in detail; see, Groutas et al. Biochemistry 36:4739 (1997).

[2] = target: T2, Thermolysin (Bacillus thermoproteolyticus, UniProt P00800); test: Thermolysin inhibition assay with N-[3-[2-Furyl]acryloyl]-Gly-L-Leu-NH2 as substrate; assay type: biochemical; conditions: 0.1 M Tris-HCl pH 7.2, 25° C.
T2 sequence (P00800 233-548): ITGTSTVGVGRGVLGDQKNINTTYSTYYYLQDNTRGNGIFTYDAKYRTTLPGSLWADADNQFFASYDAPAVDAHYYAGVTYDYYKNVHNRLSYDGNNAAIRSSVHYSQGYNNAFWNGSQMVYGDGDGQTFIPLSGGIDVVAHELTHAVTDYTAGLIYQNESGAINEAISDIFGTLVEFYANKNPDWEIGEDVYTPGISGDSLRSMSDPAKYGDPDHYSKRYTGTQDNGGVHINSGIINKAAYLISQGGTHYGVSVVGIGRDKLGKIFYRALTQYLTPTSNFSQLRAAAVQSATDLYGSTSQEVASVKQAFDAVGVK
Description: Thermolysin activity with or without inhibitor was measured using N-[3-[2-Furyl]acryloyl]-Gly-L-Leu-NH2 as substrate (Walsh, K. A. et al. Methods Enzymol.34:435 (1974; Nishino, N. et al. Biochemistry 17:2846 (1978). The substrate solution in 0.1 M Tris-HCl buffer (pH 7.2) containing 2% DMF was added to thermolysin in 0.1 M Tris-HCl, ph 7.2, containing 10 mM CaCl2 and the decrease in absorbance at 345 nm was monitored using a Hewlett-Packard diode array UV/VIS spectrophotometer at 25° C. Percent inhibition and/or K1 values were determined from Dixon plots (Dixon, M. Biochem, J. 55:70 (1953) at two different substrate concentrations.
The inhibitory activity of compound 20 and 30 toward thermolysin was determined under competitive inhibition conditions. Thermolysin activity with or without inhibitor was measured using N-[3-[2-Furyl]acryloyl]-Gly-L-Leu-NH2 as substrate (Walsh, K. A. et al. Methods Enzymol.34:435 (1974); Nishino, N. et al. Biochemistry 17:2846 (1978)).

Ki [1]: 21 µM
SMILES: CC(C)CC(C=O)N(Cc1ccccc1)S(=O)(=O)N(C)C (stereo not drawn) [Compound 15, N-benzyl-N-(1-formyl-3-methylbutyl)-N′,N′-dimethylfulfamide]

SMILES: CN(C)S(=O)(=O)N(CC(=O)NO)Cc1ccccc1 [Compound 20, N^2-benzyl-N^2-[(dimethylamino)sulfonyl]-N^1-hydroxyglycinabmide]
Ki ([2]; competitive inhibition conditions, Dixon plots at two substrate concentrations, read-out: K1 or % Inhibition (Ki), Thermolysin): 1.2 µM

SMILES: CC(C)C[C@@H](C(=O)NO)N(Cc1ccccc1)S(N)(=O)=O [Compound 40]
K1 or % Inhibition (% inhibition), Thermolysin ([2]; inhibitor concentration not given): 26% inhibition
